The source of these data is PubChem BioAssay (NCI).

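Results reflect a 48-hour exposure of cells in 96-well plates to compound at five concentrations. GI50 = concentration required for 50% inhibition of growth. TGI: total growth inhibition.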 Where only a bound is given, the exact number is not on record here.

Some test systems named below: UACC-257 melanoma; CCRF-CEM leukemia; HL-60(TB) leukemia; SF-539 CNS; NCI-H226 lung; SNB-19 CNS; UO-31 renal; NCI-H460 lung; TK-10 renal; COLO 205 colon.
Common to all, as to experiment: NCI-60 cell line screen, 48 h

For `COc1cc2c3c(n(CCN4CCOCC4)c(=O)c2cc1OC)-c1ccccc1C3=O`, the GI50 is above 100 µM in the experiment on UACC-257 melanoma; 19.7 µM with CCRF-CEM leukemia; 35.7 µM with HL-60(TB) leukemia; above 100 µM with SF-539 CNS; above 100 µM in the experiment on NCI-H226 lung; above 100 µM with SNB-19 CNS. The GI50 in the experiment on UO-31 renal is 63.3 µM; with NCI-H460 lung it was 45.1 µM; in the experiment on TK-10 renal it was above 100 µM; in the experiment on COLO 205 colon, above 100 µM. Besides, the TGI in the experiment with UACC-257 melanoma, with CCRF-CEM leukemia, with HL-60(TB) leukemia, in the experiment with SF-539 CNS, in the experiment with NCI-H226 lung and in the experiment with SNB-19 CNS was above 100 µM in each case. The TGI in the experiment with UO-31 renal, in the experiment with NCI-H460 lung, with TK-10 renal and in the experiment with COLO 205 colon was above 100 µM in each case.

For `OC(CN1CCCC2CCCCC21)c1cc2ccccc2c2ccccc12` (stereo not given), the GI50 with UACC-257 melanoma is 1.96 µM; in the experiment with CCRF-CEM leukemia, 1.87 µM; in the experiment with HL-60(TB) leukemia, 2.02 µM; in the experiment with SF-539 CNS, 1.99 µM; in the experiment on NCI-H226 lung it was 2.14 µM; with SNB-19 CNS, 3.52 µM. The GI50 in the experiment on UO-31 renal was 1.44 µM; in the experiment with NCI-H460 lung, 1.83 µM; in the experiment on TK-10 renal, 2.3 µM; in the experiment on COLO 205 colon, 1.45 µM. Moreover, the TGI in the experiment on UACC-257 melanoma was 4.73 µM; in the experiment on CCRF-CEM leukemia, 5.2 µM; with HL-60(TB) leukemia, 3.76 µM; in the experiment on SF-539 CNS it was 4.74 µM; with NCI-H226 lung, 6.32 µM; in the experiment on SNB-19 CNS it was 15.1 µM. The TGI in the experiment with UO-31 renal worked out at 7.41 µM; in the experiment on NCI-H460 lung, 3.53 µM; with TK-10 renal it was 7.66 µM; in the experiment with COLO 205 colon it was 2.9 µM.

On to `CCOC(=O)/C(C#N)=C\Sc1ccccc1`, for which the TGI was above 100 µM in the experiment on UACC-257 melanoma; above 100 µM in the experiment on CCRF-CEM leukemia; 45.6 µM in the experiment on HL-60(TB) leukemia; 30.1 µM with SF-539 CNS; 43 µM in the experiment with NCI-H226 lung; above 100 µM with SNB-19 CNS. In addition, the TGI with UO-31 renal was 24.1 µM; with NCI-H460 lung, 83.1 µM; in the experiment with TK-10 renal, above 100 µM; in the experiment on COLO 205 colon, 38.4 µM.

Take `O=C(NCc1ccco1)C1CCN(S(=O)(=O)c2ccc(Cl)cc2)CC1`: the GI50 with UACC-257 melanoma is above 100 µM; with CCRF-CEM leukemia, 83.8 µM; in the experiment with HL-60(TB) leukemia, above 100 µM; with SF-539 CNS, above 100 µM; in the experiment on NCI-H226 lung it was above 100 µM; in the experiment with SNB-19 CNS, above 100 µM. Also, the GI50 in the experiment with UO-31 renal is 86.6 µM; in the experiment with NCI-H460 lung it was 47.5 µM; in the experiment with TK-10 renal, above 100 µM; in the experiment with COLO 205 colon it was above 100 µM. The TGI in the experiment with UACC-257 melanoma, in the experiment on CCRF-CEM leukemia, in the experiment with HL-60(TB) leukemia, in the experiment with SF-539 CNS, in the experiment with NCI-H226 lung and in the experiment on SNB-19 CNS was above 100 µM throughout. In addition, the TGI in the experiment on UO-31 renal, in the experiment on NCI-H460 lung, with TK-10 renal and in the experiment with COLO 205 colon was above 100 µM each time.

As to `COc1cccc(N2CCN(c3ncnc4cc[nH]c34)CC2)c1`, the GI50 was 2.32 µM in the experiment on UACC-257 melanoma; 9.61 µM in the experiment on CCRF-CEM leukemia; 5.84 µM in the experiment on HL-60(TB) leukemia; 20.8 µM in the experiment with SF-539 CNS; 1.59 µM with NCI-H226 lung; above 100 µM in the experiment on SNB-19 CNS. The GI50 is 7.37 µM in the experiment with UO-31 renal, 7.19 µM with NCI-H460 lung, 25.5 µM in the experiment on TK-10 renal and 11.2 µM in the experiment on COLO 205 colon. For the same molecule, the TGI in the experiment on UACC-257 melanoma is 29.2 µM; in the experiment on CCRF-CEM leukemia it was above 100 µM; with HL-60(TB) leukemia, 74 µM; in the experiment with SF-539 CNS, above 100 µM; in the experiment with NCI-H226 lung, 75.7 µM; with SNB-19 CNS, above 100 µM. The TGI is above 100 µM in the experiment on UO-31 renal, above 100 µM in the experiment on NCI-H460 lung, above 100 µM in the experiment on TK-10 renal and 45.5 µM in the experiment with COLO 205 colon.

As for `CC1=NN(c2cccc(Cl)c2)C(=O)/C1=C\C=C\c1ccccc1`, the GI50 with UACC-257 melanoma was 2.13 µM; in the experiment on CCRF-CEM leukemia, 3.14 µM; in the experiment on HL-60(TB) leukemia it was 3.14 µM; in the experiment with SF-539 CNS it was 2.5 µM; in the experiment with NCI-H226 lung, 2.68 µM; in the experiment on SNB-19 CNS it was 5.67 µM. For the same molecule, the GI50 was 1.62 µM with UO-31 renal, 1.67 µM in the experiment with NCI-H460 lung, 3.17 µM in the experiment on TK-10 renal and 2.36 µM with COLO 205 colon. The TGI was 7.26 µM with UACC-257 melanoma; above 100 µM with CCRF-CEM leukemia; above 100 µM in the experiment with HL-60(TB) leukemia; 6.12 µM in the experiment on SF-539 CNS; 7.62 µM in the experiment on NCI-H226 lung; above 100 µM in the experiment on SNB-19 CNS. Also, the TGI amounted to 3.49 µM in the experiment on UO-31 renal, 3.28 µM in the experiment on NCI-H460 lung, 9.05 µM in the experiment with TK-10 renal and 4.94 µM in the experiment with COLO 205 colon.

Regarding `Nn1c(-c2cccc(Cl)c2)nc2ccccc2c1=O`, the TGI in the experiment on UACC-257 melanoma, in the experiment with CCRF-CEM leukemia, with HL-60(TB) leukemia, in the experiment on SF-539 CNS, in the experiment on NCI-H226 lung and in the experiment on SNB-19 CNS was above 100 µM each time. Further, the TGI in the experiment with UO-31 renal, in the experiment with NCI-H460 lung, in the experiment with TK-10 renal and in the experiment with COLO 205 colon was above 100 µM in each case.

For the molecule `COC(=O)c1c2c(c(C)[n+]([O-])c1C)C(=O)C(NCc1ccc(F)cc1)=CC2=O`, the GI50 in the experiment with UACC-257 melanoma is 0.845 µM; with CCRF-CEM leukemia, 2.34 µM; with HL-60(TB) leukemia, 0.745 µM; in the experiment on SF-539 CNS, 1.72 µM; in the experiment with NCI-H226 lung, 2.16 µM; in the experiment with SNB-19 CNS it was 2.1 µM. For the same molecule, the GI50 in the experiment on UO-31 renal is 1.67 µM; in the experiment on NCI-H460 lung, 0.792 µM; with TK-10 renal, 3.32 µM; with COLO 205 colon, 0.376 µM. In addition, the TGI amounted to 2.44 µM in the experiment with UACC-257 melanoma; 8.36 µM in the experiment on CCRF-CEM leukemia; 3.6 µM in the experiment with HL-60(TB) leukemia; 3.15 µM with SF-539 CNS; 4.87 µM in the experiment with NCI-H226 lung; 5.2 µM with SNB-19 CNS. Moreover, the TGI in the experiment with UO-31 renal came to 3.77 µM; in the experiment on NCI-H460 lung, 5.98 µM; in the experiment with TK-10 renal it was 36.7 µM; in the experiment on COLO 205 colon, 1.36 µM.

On to `COc1cc2c(NC3CCN(C(C)C)CC3)nc(C3CCCCC3)nc2cc1OCCCN1CCCC1`, for which the GI50 in the experiment on UACC-257 melanoma is 1.67 µM; in the experiment on CCRF-CEM leukemia it was 2.44 µM; with HL-60(TB) leukemia, 3.03 µM; in the experiment on SF-539 CNS it was 1.79 µM; in the experiment with NCI-H226 lung it was 12.3 µM; with SNB-19 CNS, 15.4 µM. Moreover, the GI50 is 14.1 µM in the experiment on UO-31 renal, 3.45 µM in the experiment on NCI-H460 lung, 2.15 µM with TK-10 renal and 1.66 µM in the experiment on COLO 205 colon. Further, the TGI with UACC-257 melanoma came to 3.25 µM; in the experiment with CCRF-CEM leukemia it was 6.88 µM; in the experiment on HL-60(TB) leukemia, 10.9 µM; with SF-539 CNS, 3.48 µM; in the experiment on NCI-H226 lung, 26.9 µM; in the experiment with SNB-19 CNS, 30.3 µM. The TGI was 28.1 µM with UO-31 renal, 12.9 µM with NCI-H460 lung, 5.54 µM in the experiment with TK-10 renal and 3.1 µM in the experiment on COLO 205 colon.

Take `COc1c(-c2ccc3c(c2)OCO3)oc2cc(O)cc(O)c2c1=O`: the TGI in the experiment on UACC-257 melanoma, in the experiment with CCRF-CEM leukemia, in the experiment with HL-60(TB) leukemia, with SF-539 CNS, in the experiment with NCI-H226 lung and in the experiment with SNB-19 CNS was above 100 µM each time. Further, the TGI in the experiment on UO-31 renal, in the experiment on NCI-H460 lung, in the experiment on TK-10 renal and with COLO 205 colon was above 100 µM each time.

For `CC(=O)[CH-]C(=O)c1ccccc1.CC(=O)[CH-]C(=O)c1ccccc1.CC[C@H](/C=C/C(C)[C@H]1CCC2[C@@H]3CC=C4C[C@@H]([O-])CC[C@]4(C)C3CC[C@@]21C)C(C)C.CC[C@H](/C=C/C(C)[C@H]1CCC2[C@@H]3CC=C4C[C@@H]([O-])CC[C@]4(C)C3CC[C@@]21C)C(C)C.Cl.[Ti+4]` (stereo not given in full), the GI50 was above 25 µM in the experiment on UACC-257 melanoma; above 25 µM in the experiment on CCRF-CEM leukemia; 6.35 µM with HL-60(TB) leukemia; above 25 µM in the experiment on SF-539 CNS; above 25 µM in the experiment with NCI-H226 lung; above 25 µM in the experiment on SNB-19 CNS. Also, the GI50 with UO-31 renal, in the experiment with NCI-H460 lung, in the experiment on TK-10 renal and with COLO 205 colon was above 25 µM in each case. In addition, the TGI with UACC-257 melanoma is above 25 µM; in the experiment on CCRF-CEM leukemia it was above 25 µM; with HL-60(TB) leukemia, 16.6 µM; in the experiment with SF-539 CNS it was above 25 µM; with NCI-H226 lung, above 25 µM; with SNB-19 CNS it was above 25 µM. In addition, the TGI in the experiment on UO-31 renal, in the experiment with NCI-H460 lung, in the experiment with TK-10 renal and in the experiment on COLO 205 colon was above 25 µM throughout.

As to `C=C1C(=O)O[C@@H]2CC(CO)=C([C@@H](C)CCCO)[C@@H](OC(=O)/C(C)=C\C)[C@H]12`, the TGI in the experiment on UACC-257 melanoma is 38.1 µM; in the experiment on CCRF-CEM leukemia, 10 µM; with HL-60(TB) leukemia, 4.86 µM; in the experiment with SF-539 CNS, above 71.3 µM; in the experiment with NCI-H226 lung, above 62.8 µM; in the experiment with SNB-19 CNS it was above 54.6 µM. Also, the TGI with UO-31 renal was above 65 µM; in the experiment with NCI-H460 lung, 48.2 µM; with TK-10 renal, 45.9 µM; in the experiment with COLO 205 colon it was 28.7 µM.
